Assay [1] deals with HL-60. Description: Cytotoxicity against human HL60 cells by MTT assay. Type of assay: functional, cell-based.
Assay [2] deals with HL-60. Description: Induction of apoptosis in human HL60 cells assessed as DNA accumulation at sub-G1 phase at IC50 concentration after 24 hrs by flow cytometry. It counts as functional.
In another assay the test system is HaCaT. Description: Inhibition of ultraviolet-B-induced apoptosis in human HaCaT cells. Type of assay: functional, cell-based.
Assay [3] relates to HL-60. Description: Induction of apoptosis in human HL60 cells assessed as increase of apoptotic bodies at IC50 concentration after 24 hrs using Hoechst 33342 staining by fluorescent microscopic analysis. Type of assay: functional, cell-based.

Activity calls are given as the source filed them. The rule behind the calls is not given here.

In turn, `C=C(C)C(CC[C@](C)(O[C@@H]1O[C@H](CO[C@@H]2OC[C@H](O)[C@H](O)[C@H]2O)[C@@H](O)[C@H](O)[C@H]1O)[C@H]1CC[C@]2(C)[C@@H]1[C@H](O)C[C@@H]1[C@@]3(C)CC[C@H](O[C@@H]4O[C@H](CO[C@@H]5O[C@H](CO)[C@@H](O)[C@H](O)[C@H]5O)[C@@H](O)[C@H](O)[C@H]4O)C(C)(C)[C@@H]3[C@@H](O)C[C@]12C)OO` (some centres undefined) [FLORALGINSENOSIDE TC] gave a half-inhibitory concentration (IC50) in the assay on HL-60 [1] of 100 µM.
As to `CC(C)=CCC[C@](C)(O[C@@H]1O[C@H](CO)[C@@H](O)[C@H](O)[C@H]1O)[C@H]1CC[C@]2(C)[C@@H]1[C@H](O)C[C@@H]1[C@@]3(C)CC[C@H](O)C(C)(C)[C@@H]3[C@@H](O)C[C@]12C` [GINSENOSIDE F1], in the assay on HL-60 [2], the Activity was 19.2%. In addition, the result in the assay with HaCaT and in the assay on HL-60 [3] was Active. Besides, half-maximal inhibition with HL-60 [1] (IC50) required 23.2 µM.
Consider `CC(C)=CCC[C@](C)(O[C@@H]1O[C@H](CO[C@H]2O[C@H](CO)[C@@H](O)[C@@H]2O)[C@@H](O)[C@H](O)[C@H]1O)[C@H]1CC[C@]2(C)[C@@H]1[C@H](O)C[C@@H]1[C@@]3(C)CC[C@H](O)C(C)(C)[C@@H]3[C@@H](O)C[C@]12C` [GINSENOSIDE F5], for which the Activity in the assay on HL-60 [2] is reported as 21.4%. For the same compound, in the assay with HL-60 [3], the result was Active. The same compound yielded an IC50 with HL-60 [1] of 62.4 µM.
Take `C=C(C)C(=O)CC[C@](C)(O[C@@H]1O[C@H](CO)[C@@H](O)[C@H](O)[C@H]1O)[C@H]1CC[C@]2(C)[C@@H]1[C@H](O)C[C@@H]1[C@@]3(C)CC[C@H](O)C(C)(C)[C@@H]3[C@@H](O)C[C@]12C` [FLORALGINSENOSIDE TA]: the Activity in the assay on HL-60 [2] amounted to 29.8%. In the assay on HL-60 [3], the outcome was Active. Besides, the midpoint of inhibition with HL-60 [1], the IC50, lay at 36.3 µM.
As to `O=C1c2c(O)ccc(O)c2C(=O)c2c(NCCNCCO)ccc(NCCNCCO)c21` [MITOXANTRONE], half-maximal inhibition in the assay on HL-60 [1] (IC50) required 6.8 µM.
`C=C(C)C(CC[C@](C)(O[C@@H]1O[C@H](COC2OC[C@H](O)[C@H](O)[C@H]2O)[C@@H](O)[C@H](O)[C@H]1O)[C@H]1CC[C@]2(C)[C@@H]1[C@H](O)C[C@@H]1[C@@]3(C)CC[C@H](O[C@@H]4O[C@H](COC5O[C@H](CO)[C@@H](O)[C@H](O)[C@H]5O)[C@@H](O)[C@H](O)[C@H]4O)C(C)(C)[C@@H]3[C@@H](O)C[C@]12C)OO` (some centres undefined) [FLORALGINSENOSIDE TD] yielded an IC50 in the assay on HL-60 [1] of 100 µM.
Still for that read-out and setting: under `COC(CC[C@](C)(O[C@@H]1O[C@H](CO)[C@@H](O)[C@H](O)[C@H]1O)[C@H]1CC[C@]2(C)[C@@H]1[C@H](O)C[C@@H]1[C@@]3(C)CC[C@H](O)C(C)(C)[C@@H]3[C@@H](O)C[C@]12C)OC` [FLORALGINSENOSIDE TB] stands 100 µM.

Values taken from ChEMBL document CHEMBL1153134, “Dammarane-type saponins from the flower buds of Panax ginseng and their effects on human leukemia cells” (Bioorg Med Chem Lett, 2010).
